Results on 40 compounds are retold here after PubChem BioAssay (NCI).

“And” between values parts separate entries of the source, which are not always exact repeats. Identical values can stand only once.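 Exposure lasted 48 hours, with cells grown in 96-well plates and compounds tested at five concentrations. GI50 marks 50% less growth. TGI: concentration producing complete growth inhibition.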 Some results are limits rather than exact numbers.

Among the test systems are DLD-1 colon; DMS 114 small cell lung; LXFL 529 NSCLC; KM20L2 colon; HOP-18 NSCLC; RXF-631 renal; P388/ADR leukemia; P388 leukemia; BT-549 breast; MDA-N; HS 578T breast.
Common to all, as to assay: NCI tumour cell line growth inhibition, 48 h

Take `O=C(N/C(=C\c1cccc([N+](=O)[O-])c1)c1nc2ccccc2[nH]1)c1ccccc1`: the TGI in the assay with DLD-1 colon, in the assay on DMS 114 small cell lung, with LXFL 529 NSCLC and in the assay with KM20L2 colon was greater than 100 µM throughout.
With `NC1CCCCC1N.O=C1C=C/C(=C(/c2ccc(O)c(Br)c2)c2ccccc2S(=O)(=O)[O-])C=C1Br.O=C1C=C/C(=C(/c2ccc(O)c(Br)c2)c2ccccc2S(=O)(=O)[O-])C=C1Br.[Pt+4]`, the GI50 was 5.27 µM with DLD-1 colon, 7.95 µM with HOP-18 NSCLC, 4.43 µM in the assay with LXFL 529 NSCLC and 755 nM in the assay with KM20L2 colon. Moreover, the TGI in the assay on DLD-1 colon, in the assay with HOP-18 NSCLC, in the assay with LXFL 529 NSCLC and in the assay with KM20L2 colon was greater than 100 µM throughout.
In the case of `CSc1ccc2c(cc1=O)[C@@H](NC(=O)c1ccc(Cl)cc1)CCc1cc(O)c(O)c(O)c1-2`, the TGI is 72.7 µM with DLD-1 colon; greater than 100 µM in the assay with DMS 114 small cell lung; greater than 100 µM with HOP-18 NSCLC; greater than 100 µM in the assay on LXFL 529 NSCLC; greater than 100 µM in the assay with KM20L2 colon.
In the case of `CCOC(=O)C(CCC(N)=O)(CCC(=O)OC)C(=O)OCC`, the TGI with DLD-1 colon, with DMS 114 small cell lung, with HOP-18 NSCLC, in the assay with LXFL 529 NSCLC and in the assay with KM20L2 colon was greater than 100 µM in each case.
Take `COC(=O)c1ncc2c(=O)[nH]c3ccccc3c2c1C(=O)OC`: the TGI with DLD-1 colon, in the assay on RXF-631 renal, in the assay on DMS 114 small cell lung, in the assay on HOP-18 NSCLC, in the assay on LXFL 529 NSCLC and in the assay on KM20L2 colon was greater than 100 µM throughout.
Regarding `N#CCC(=O)N/N=C1/C(=O)N(c2cc(Cl)ccc2Cl)C(=O)C(=O)C1c1nc2ccccc2s1` (centres undefined), the TGI in the assay with DLD-1 colon, in the assay with RXF-631 renal, with DMS 114 small cell lung, in the assay with HOP-18 NSCLC, with LXFL 529 NSCLC and in the assay with KM20L2 colon was greater than 100 µM each time.
In the case of `Cc1ccc(/C=C(\NC(=O)c2ccccc2)c2nc3ccccc3[nH]2)cc1`, the TGI with DLD-1 colon, in the assay with DMS 114 small cell lung, in the assay with HOP-18 NSCLC, with LXFL 529 NSCLC and in the assay on KM20L2 colon was greater than 100 µM each time.
For `COC(=O)[C@@]1(C)C(=O)CC[C@@H]1C=O`, the TGI in the assay on DLD-1 colon, in the assay on DMS 114 small cell lung, in the assay with LXFL 529 NSCLC and with KM20L2 colon was greater than 100 µM each time.
`CCOc1cn(C2OC(CO)C(O)C2O)c(=O)[nH]c1=O` (centres undefined): the TGI in the assay with DLD-1 colon, in the assay on DMS 114 small cell lung, in the assay with HOP-18 NSCLC, in the assay on LXFL 529 NSCLC and with KM20L2 colon was greater than 100 µM in each case.
On to `CC1=NN(C(=O)Nc2ccc(Cl)cc2)C(=O)C2CCC(=O)N12` (centres undefined), for which the TGI in the assay with DLD-1 colon, in the assay on DMS 114 small cell lung, in the assay with LXFL 529 NSCLC and with KM20L2 colon was greater than 100 µM throughout.
`O=C(CCc1ccccc1)NS(=O)(=O)c1ccccc1`: the TGI with DLD-1 colon, in the assay on RXF-631 renal, in the assay with DMS 114 small cell lung, with HOP-18 NSCLC, with LXFL 529 NSCLC and with KM20L2 colon was greater than 100 µM in each case.
In the case of `CC(=O)OCCOCNC(=S)N/N=C/c1cc([N+](=O)[O-])ccc1O`, the TGI with DLD-1 colon, in the assay on RXF-631 renal, with DMS 114 small cell lung, in the assay with HOP-18 NSCLC, in the assay on LXFL 529 NSCLC and in the assay on KM20L2 colon was greater than 100 µM each time.
For `CCOC(=O)C1=C(C)NC2=C(C(=O)N(c3ccccc3)C2c2ccccc2)C1c1ccccc1` (centres undefined), the TGI with DLD-1 colon is 34.5 µM; with RXF-631 renal, 32.9 µM; with DMS 114 small cell lung, 32.4 µM; with HOP-18 NSCLC, 37.7 µM; with LXFL 529 NSCLC it was 30.3 µM.
For the compound `CC(C)(C)C(=O)Nc1cccc2oc(-c3ccccc3)cc12`, the TGI in the assay on DLD-1 colon, with RXF-631 renal, in the assay with DMS 114 small cell lung, in the assay with HOP-18 NSCLC, with LXFL 529 NSCLC and in the assay on KM20L2 colon was greater than 100 µM throughout.
With `COc1ccc(C2ON(c3ccccc3)CC=C2C)cc1` (centres undefined), the TGI in the assay on DLD-1 colon, in the assay with RXF-631 renal, in the assay with LXFL 529 NSCLC and in the assay on KM20L2 colon was greater than 100 µM in each case.
`O=C(OCCCl)C1OC(n2cc(F)c(=O)[nH]c2=O)CC1O` (centres undefined): the TGI with DLD-1 colon, with DMS 114 small cell lung, with HOP-18 NSCLC, in the assay on LXFL 529 NSCLC and in the assay with KM20L2 colon was greater than 100 µM in each case.
With `C[C@@H](NS(=O)(=O)c1ccc(NC(=O)c2ccccc2)cc1)C(=O)O`, the TGI in the assay on DLD-1 colon, in the assay with HOP-18 NSCLC, in the assay on LXFL 529 NSCLC and in the assay on KM20L2 colon was greater than 100 µM throughout.
Turning to `CC(C)(C)c1cc(CCCCCCCC2(CCCCCCCc3cc(C(C)(C)C)cc(C(C)(C)C)c3)OC(COCCOCCCCCC#N)C(COCCOCCCCCC#N)O2)cc(C(C)(C)C)c1` (centres undefined), the TGI in the assay with DLD-1 colon, with DMS 114 small cell lung, with HOP-18 NSCLC, with LXFL 529 NSCLC and in the assay with KM20L2 colon was greater than 100 µM in each case.
On to `Cc1ccc(NC(=O)CC/C(CC(=O)C(C)(C)C)=N\NC(=O)C[n+]2ccccc2)cc1C`, for which the TGI with DMS 114 small cell lung, with HOP-18 NSCLC, with LXFL 529 NSCLC and with KM20L2 colon was greater than 100 µM throughout.
Turning to `CN(C)CCC(CCN(C)C)=NO`, the TGI in the assay with DLD-1 colon, with RXF-631 renal, in the assay with DMS 114 small cell lung, in the assay on HOP-18 NSCLC, with LXFL 529 NSCLC and in the assay on KM20L2 colon was greater than 100 µM throughout.
As to `C=CC(=O)NC(N)=NC#N`, the TGI was 311 µM in the assay with DLD-1 colon; greater than 58 µM in the assay with P388/ADR leukemia; 250 µM in the assay with DMS 114 small cell lung; greater than 43.5 µM in the assay on P388 leukemia; 283 µM with HOP-18 NSCLC; 250 µM in the assay with LXFL 529 NSCLC. The compound also showed a TGI in the assay with KM20L2 colon of 287 µM.
Take `Cc1ccc(S(=O)(=O)N2CCN(C=S)CC2)cc1`: the TGI in the assay on DLD-1 colon, with RXF-631 renal, in the assay with DMS 114 small cell lung, with HOP-18 NSCLC, in the assay on LXFL 529 NSCLC and in the assay on KM20L2 colon was greater than 100 µM throughout.
Take `O=C(/C=C/c1ccccc1O)c1ccc([N+](=O)[O-])cc1`: the TGI with DLD-1 colon was 26.3 µM; with RXF-631 renal, 89.9 µM; with DMS 114 small cell lung it was 24.7 µM; in the assay on HOP-18 NSCLC, greater than 100 µM; with LXFL 529 NSCLC, 26.7 µM; in the assay on KM20L2 colon it was 39.7 µM.
`CC(=O)O[C@H]1CCN2C(=O)C=CC(OCc3ccccc3)C12` (some centres undefined): the TGI in the assay on DLD-1 colon, in the assay with DMS 114 small cell lung, in the assay on HOP-18 NSCLC, with LXFL 529 NSCLC and in the assay on KM20L2 colon was greater than 100 µM throughout.
As for `OCC[N+]12CCCN1CCC2`, the TGI in the assay on DLD-1 colon, with DMS 114 small cell lung, in the assay with HOP-18 NSCLC, with LXFL 529 NSCLC and in the assay on KM20L2 colon was greater than 100 µM in each case.
`COc1cc2oc(-c3ccccc3)cc(=O)c2c(O)c1C`: the TGI in the assay with DLD-1 colon, with DMS 114 small cell lung, with LXFL 529 NSCLC and with KM20L2 colon was greater than 100 µM in each case.
As for `CC1=C(C)C(=O)O[C@@H]([C@](C)(O)[C@]2(O)CC[C@@]3(O)[C@@H]4C[C@H](O)[C@]5(O)[C@@H](O)C=CC(=O)[C@]5(C)[C@H]4CC[C@]23C)C1`, the TGI with BT-549 breast, with MDA-N and in the assay with HS 578T breast was greater than 100 µM throughout.
With `O=C(O)c1ccc(C(O)(c2ccccc2)c2ccccc2)cc1`, the TGI with BT-549 breast, with MDA-N and with HS 578T breast was greater than 100 µM in each case.
Turning to `COc1ccc(C(=O)c2c3cc(OC)c(OC)c(OC)c3cc[n+]2C)cc1`, the TGI in the assay with DLD-1 colon is greater than 100 µM; with RXF-631 renal, greater than 100 µM; with DMS 114 small cell lung it was 75.7 µM; with HOP-18 NSCLC it was 80.6 µM; in the assay with LXFL 529 NSCLC it was greater than 100 µM; with KM20L2 colon, greater than 100 µM.
As to `CCCCNS(=O)(=O)c1n[nH]c(=O)[nH]c1=O`, the TGI with BT-549 breast, with MDA-N and with HS 578T breast was greater than 100 µM throughout.
As for `Oc1ccc2c3c1OC1c4[nH]ncc4C[C@H]4[C@@H](C2)N(CC2CC2)CC[C@]314` (some centres undefined), the TGI in the assay on BT-549 breast, in the assay on MDA-N and in the assay with HS 578T breast was greater than 100 µM each time.
In the case of `COCCOC1=CC(=O)c2c(O)ccc(O)c2C1=O`, the TGI in the assay on BT-549 breast is 3.17 µM; with MDA-N, 0.341 µM and 1.13 µM; in the assay with HS 578T breast it was 6.88 µM. The GI50 in the assay on MDA-N was 359 nM.
For `COc1cc(CC2c3cc(OC)c(OC)cc3CCN2C)ccc1O` (centres undefined), the TGI in the assay on DLD-1 colon, with HOP-18 NSCLC, in the assay with LXFL 529 NSCLC and in the assay on KM20L2 colon was greater than 100 µM each time.
Consider `Cc1[nH]c2ccccc2c1CC/C(=N\Nc1ccccc1)c1ccccc1`, for which the TGI in the assay with DLD-1 colon, in the assay with RXF-631 renal and in the assay on KM20L2 colon was greater than 100 µM in each case.
As for `O=C(Cc1nc2ccccc2o1)C(=O)Nc1cccc(Cl)c1`, the TGI in the assay on DLD-1 colon, with DMS 114 small cell lung, in the assay on HOP-18 NSCLC, with LXFL 529 NSCLC and in the assay with KM20L2 colon was greater than 100 µM throughout.
For the compound `Cn1c(=O)nc2n(-c3ccc(Cl)cc3)c3cc(Cl)ccc3nc-2c1=O`, the TGI was 7.17 µM with BT-549 breast; 3.9 µM in the assay with DLD-1 colon; 4.22 µM in the assay with RXF-631 renal; 3.8 µM with DMS 114 small cell lung; 3.09 µM in the assay on MDA-N; 28.3 µM with HOP-18 NSCLC. Further, the figures for the TGI with LXFL 529 NSCLC, in the assay on HS 578T breast and with KM20L2 colon were 3.13 µM, 5.59 µM and 35.7 µM, respectively.
Take `CCn1c2ccccc2c(=O)c2c(OC)ccc(OC)c21`: the TGI in the assay with RXF-631 renal, in the assay on LXFL 529 NSCLC and in the assay with KM20L2 colon was greater than 100 µM each time.
`COc1c(/C=C/C=O)cc2c(c1OC)OCO2`: the TGI was greater than 100 µM in the assay with BT-549 breast, 94 µM in the assay with MDA-N and greater than 100 µM in the assay with HS 578T breast.
Turning to `O=C1C(=C([O-])c2ccccc2)C(=O)c2ccccc21.O=C1C(=C([O-])c2ccccc2)C(=O)c2ccccc21.[Mn+2]`, in the assay on DLD-1 colon, the GI50 is 62 µM and the TGI is greater than 100 µM. In addition, in the assay on HOP-18 NSCLC, the GI50 is 35.4 µM and the TGI was greater than 100 µM.
`COc1cc(/C=C2\CCC/C(=C\c3ccc(O)c(OC)c3)C2=O)ccc1O`: the GI50 was 1760 nM in the assay on BT-549 breast and 2250 nM in the assay on HS 578T breast. In addition, the TGI in the assay on BT-549 breast is 14.2 µM and 3.28 µM; with DLD-1 colon, 3.38 µM; in the assay with DMS 114 small cell lung, 4.48 µM; in the assay on MDA-N, 12.5 µM; in the assay with HOP-18 NSCLC it was 9.21 µM; in the assay with LXFL 529 NSCLC, 4.22 µM. Besides, the TGI was 26.5 µM and 8.93 µM in the assay with HS 578T breast; 28.7 µM in the assay with KM20L2 colon.
